According to the NIST ThermoML archive (doi:10.1016/j.tca.2016.06.022):

Tests used:
[1] = 101 kPa, Liquid, Vibrating tube method
[2] = xn = mol fraction of the nth substance listed; conditions: 101 kPa, Liquid, Vibrating tube method, x2 = 0

NCCN [ethane-1,2-diamine]
[1]
Conditions	mass density [kg/m3]
288.15 K	901.26
298.15 K	891.9
308.15 K	882.49
323.15 K	868.23
333.15 K	858.6

O [water]
[1]
Conditions	mass density [kg/m3]
274.15 K	999.899
275.15 K	999.94
276.15 K	999.964
277.15 K	999.972
278.15 K	999.964
279.15 K	999.94
280.15 K	999.901
281.15 K	999.848
282.15 K	999.781
283.15 K	999.699
323.15 K	988.03
333.15 K	983.191

O [water] + NCCN
[2]
Conditions	mass density [kg/m3]
274.15 K	999.899
275.15 K	999.94
276.15 K	999.964
277.15 K	999.972
278.15 K	999.964
279.15 K	999.94
280.15 K	999.901
281.15 K	999.848
282.15 K	999.781
283.15 K	999.699
323.15 K	988.03
333.15 K	983.191
